Patent US8911713B2, “Method for preventing or treating skin tumor” (Galderma Research & Development, priority 2010, dated 2014)
Like-named read-outs stand apart in the source and are kept apart here.

Tested on: UV-induced skin tumor
Details: for Tumor Yield (≧1 mm): average number of tumors per survivor; for Median Week to Tumor (≧1 mm): 100 μL/mouse, 5 days/wk, + 600 RBU/week UVR, 40 weeks + 12 weeks observation
Protocol: Albino hairless SKH1-hr mice (36/sex/group) were treated for 40 weeks with UVR and brimonidine gel or vehicle according to the design in table 11. […] Topical treatments were performed approximately one hour before UVR on Monday, Wednesday and Friday of each week and approximately one hour after UVR Tuesday and Thursday of each week.

Brc1c(NC2=NCCN2)ccc2nccnc12 [Brimonidine, (5-Bromo-quinoxalin-6-yl)-(4,5-dihydro-1H-imidazol-2-yl)-amine]
Reduction of tumor yield (≧1 mm) compared to the vehicle group (0.18% topical + 600 RBU/week UVR): 1.7 fold | Members of the group that acquired one or more qualifying tumors (≧1 mm) within the 52-week study period (1% topical + 600 RBU/week UVR): less than one-half | Reduction of tumor yield (≧1 mm) compared to the vehicle group (1% topical + 600 RBU/week UVR): 4.7 fold | Members of the group that acquired one or more qualifying tumors (≧1 mm) within the 52-week study period (2% topical + 600 RBU/week UVR): less than one-half | Reduction of tumor yield (≧1 mm) compared to the vehicle group (2% topical + 600 RBU/week UVR): 8.1 fold | Tumor Yield (≧1 mm) (Group 2: 0.18% topical + 600 RBU/week UVR): 2.40 tumors per survivor | Median Week to Tumor (≧1 mm) (Group 2: 0.18% topical): 48 Week | Tumor Yield (≧1 mm) (Group 3: 1% topical + 600 RBU/week UVR): 0.85 tumors per survivor | Median Week to Tumor (≧1 mm) (Group 3: 1% topical): >52 Week | Tumor Yield (≧1 mm) (Group 4: 2% topical + 600 RBU/week UVR): 0.49 tumors per survivor | Median Week to Tumor (≧1 mm) (Group 4: 2% topical): >52 Week | UV-induced skin tumor formation (topical 0.18%, 1% and 2% + 600 RBU/week UVR): dose-dependent delay | Sizes of tumors (tumor prevalence by size, FIG. 1) (with increasing concentration, topical, sexes combined): the sizes of tumors were also reduced
